Experimental data from US9572760B2, “Uses of compounds and mixtures from Antrodia cinnamomea mycelia” (Simpson Biotech Co., Ltd., priority 2013, dated 2017).

Columns and labels:
[1] = test system: cirrhotic animals; assay: Redox status (Glutathione level, GSH:GSSG ratio) in cirrhotic animals; type: in vivo, Wistar rats; details: compound B 7 mg/kg, compound C 14 mg/kg
Protocol: A commercially available kit (# K264-100, BioVision) was used to measure glutathione (GSH), and oxidized glutathione (GSSG). […] The assay was conducted with several modifications to the manufacturer's directions. Briefly, cellular pellet (˜10 mg) was homogenized immediately, and take 60 μl of each sample to a prechilled tube containing Perchloric Acid and centrifuged at 13,000×g for 2 min, collect supernatant and stored at −80° C. until analyzed. The assay was conducted as described by the manufacturer. Briefly, cold 3N KOH was added to each sample mixed, and centrifuged at 13,000×g for 10 min. Ten microliters of each sample and the appropriate buffer and 90 μl of Assay Buffer to detect GSH and 10 μl of glutathione reductase were mixed to detect total glutathione and 10 μl of GSH Quencher to detect GSSG and incubated at room temperature for 40 min and the absorbance of each sample was read at 340/420 nm for 3 min. The protein concentration for each sample was determined via a DC protein concentration assay (Bio-Rad). Signals from each sample were normalized to the corresponding protein content of that sample.

[2] = test system: B16F10 cells; assay: Melanin content in B16F10 cells after UV irradiation; type: cell-based, murine; details: 10 μM for 72 hrs prior to UV irradiation; UV alone 33.80±4.6% increase over non-UV cells (7.4±0.3 μg/mg protein)
Excerpt: (§1) The dermal fibroblast cell line CG1639 was obtained from the BCRC (Bioresource Collection and Research Center) and cultured in Dulbecco's modified Eagle media (DMEM, Gibco by Invitrogen) with 1% antibiotic antimycotic (Gibco by Invitrogen) and 15% fetal bovine serum (Gibco by Invitrogen). The fetal rat skin keratinocyte, FRSK cell line was obtained from the Japan HSRRB (Health Science Research Resources Bank) and cultured in Eagle's minimal essential media (MEM, Gibco by Invitrogen) supplemented with 10% fetal bovine serum (FBS) (Gibco by Invitrogen) and 1% antibiotic antimycotic (Gibco by Invitrogen). B16F10 cells, a murine melanoma cell line, were purchased from American Type Culture Collection (ATCC, Rockville, Md., USA) and was cultured in Eagle's Minimum Essential Medium (MEM; Sigma, St. Louis, Mo.) supplemented with 10% fetal bovine serum (FBS; HyClone Lab. Inc., Logan, Utah), 0.02% antibiotic-antimycotic liquid (penicillin, 10 000 U mL^−1; streptomycin, 10 000 μg mL^−1 and amphotericin B, 25 μg mL^−1; Invitrogen, Carlsbad, Calif.).
To investigate the induction of melanogenesis and the oxidative stress by direct UV irradiation, melanoma cells and keratocytes were irradiated with 8 J cm^−2 of UVA (FL15BLB, 352 nm, 15 W; Toshiba, Tokyo, Japan) and 10 mJ cm^−2 of UVB (G15T8E, 306 nm, 15 W; Sankyo Denki, Tokyo, Japan) in a HANKS' balanced salt solution (Sigma). The UV intensity was measured by using a Model UVX Digital Radiometer (UVP Inc., Upland, Calif.).
B16F10 and FRSK cells were exposed to Hepasim compounds A-D by two different concentrations (3 or 10 μM) for 72 hrs prior to UVA irradiation. DMEM was replaced with phosphate buffered saline (PBS) to avoid generation of medium-derived toxic photoproducts prior to UV irradiation. Cells were collected 24 hrs after UVA irradiation and assayed. For preparation of cell lysate, the harvested cells were pelleted by centrifugation and lysed in lysis buffer containing 50 mM Tris-HCl, 10 mM ethylene diaminetetraacetic acid (EDTA), 1% (v/v) Tri-ton X-100, phenylmethylsulfonyl fluoride (PMSF) (100 mg/ml) and pepstatin A (1 mg/ml) in DMSO and leupeptin (1 mg/ml) in H2O, pH 6.8. The cells were centrifuged at 10,000 rpm for 10 min and the total cell lysate was collected and stored at −80° C.
In order to measure the melanin contents, B16F10 cells were sonicated on ice and the mixture was centrifuged (25 000 g, 10 min, 4° C.). The supernatant was transferred, and pellets were dissolved in 0.85 N KOH at 60° C. for 20 min. Standard melanin (Sigma) was incubated in parallel. Spectrophotometric analysis of melanin content was then performed at an absorbance of 405 nm

[3] = test system: Dermal fibroblast, CG1639 cells; assay: Profibrogenic gene expression in dermal fibroblast cell line (qRT-PCR); type: cell-based; details: two concentrations, 72 hrs
Excerpt: as §1
Reverse transcription reaction was performed using a commercially available set of High Capacity RNA-to-cDNA Kit (Applied Biosystems, USA). cDNA was prepared from 2 μg of total RNA per 20 μl reaction, according to the manufacturer's instructions—37° C. for 60 minutes, 95° C. for 5 minutes, and hold at 4° C. The resulting cDNA was to a final concentration of 100 ng/μl and constituted a matrix in further experiments.
Amplification and detection the gene expression by real-time PCR were performed using StepOne plus Real-time PCR System (Applied Biosystems, USA). Samples were assayed in a 10 μl reaction mixture containing 2 μl of template DNA, 5 μl of 2× TaqMan PCR Master Mix (Applied Biosystems, Life Technologies, Foster City, Calif., USA), 0.5 μl of 20× assay mix containing probe, forward and reverse primer (Applied Biosystems, Life Technologies, Foster City, Calif., USA), whereby qPCR targets with the following information were used: (a) α-SMA, Assay ID Rn01759928_g1, (b) TIMP-1, Assay ID Rn00587558_m1, (c) TGF-β1, Assay ID Rn00572010_m1, (d) Collagen I, Assay ID Rn 01463838_m1, (e) GAPDH, Assay ID Rn1462662_g1. To control variation in mRNA concentration, all results were normalized to the housekeeping gene, GAPDH. Relative quantitation was performed using the comparative ΔΔCt method according to the manufacturer's instructions. The cycling conditions used were as follows: 50° C. for 2 min, 95° C. for 10 min followed by 40 cycles of 95° C. for 15 s and 60° C. for 1 min each.
Dermal fibroblast, CG1639 cells, were exposed to Hepasim compounds by two different concentrations for 72 hrs. Then, RNA was extracted and subsequent real-time quantitative PCR Collagen-1, TGF-β1, α-SMA and TIMP-1 mRNA were measured.

Compound	Redox status: GSH:GSSG ratio [1]	Redox status: Glutathione level [1]	melanin production in UV-irradiated B16F10 cells [2]	All-4 profibrogenic gene expression (Collagen-1, TGF-β1, α-SMA, TIMP-1) [3]	dose dependence of profibrogenic gene down-regulation [3]
CC(C)=CCOc1ccc(C2=C(CC(C)C)C(=O)NC2=O)cc1 [Compound B, 3-isobutyl-4-[4-(3-methyl-2-butenyloxy)phenyl]-1H-pyrrol-2,5-dione]	significantly improved	significantly improved	29.40±4.3%	down-regulated significantly	dose-dependent effect
CC(C)=CCOc1ccc(C2=C(CC(C)C)C(=O)N(O)C2=O)cc1 [Compound C, 3-isobutyl-4-[4-(3-methyl-2-butenyloxy)phenyl]-1H-pyrrol-1-ol-2,5-dione]	significantly improved	significantly improved	28.92±5.3%	down-regulated significantly	dose-dependent effect
